Laboratory results from patent US11660280B2, “Treatment of drug resistant gliomas” (OKLAHOMA MEDICAL RESEARCH FOUNDATION, priority 2017, dated 2023).
Where a name gives a salt, the structure may show the parent alone.

Tests used:
[1] = in vivo; cited from earlier work
[2] = rats; cited from earlier work
C6 gliomas = conditions: rat C6 glioma, cited from earlier work
MGMT [3] = assay: ELISA protein level in human GBM cell lysates; format: cell-based
Description: (§1) ELISA for HIF-1a, MPG and MGMT. Protein expressions were assessed in all six glioma cell lines for all four groups of treatment (cell alone, cells with TMZ, cells with OKN, cells with combined OKN and TMZ). Cells were lysed before assaying. In brief, cells were washed by cold PBS gently, and then detached with trypsin, and collected by centrifugation at 1,000×g for 5 minutes. Then, cells were washed three times in cold PBS, then suspended in fresh lysis buffer. Lysates were centrifuged at 1,500×g for 10 minutes at 2-8° C. to remove cellular debris.
(§2) The assay is based on the sandwich ELISA principle. Each well of the supplied microtiter plate has been pre-coated with a target specific capture antibody. Standards or samples are added to the wells and the target antigen binds to the capture antibody. Unbound Standard or sample is washed away. A biotin-conjugated detection antibody is then added which binds to the captured antigen. Unbound detection antibody is washed away. An Avidin-Horseradish Peroxidase (HRP) conjugate is then added which binds to the biotin. Unbound Avidin-HRP conjugate is washed away. A TMB substrate is then added which reacts with the HRP enzyme resulting in color development. A sulfuric acid stop solution is added to terminate color development reaction and then the optical density (OD) of the well is measured at a wavelength of 450 nm±2 nm. The OD of an unknown sample can then be compared to an OD standard curve generated using known antigen concentrations in order to determine its antigen concentration.
(§3) The antigen concentration determined from ELISA was then normalized to the total protein concentration of each cell lysate in order to have comparison between groups. ELISA Kits for N-Methylpurine DNA Glycosylase (MPG) and for Hypoxia Inducible Factor 1 Alpha (HIF1a) were purchased from CLOUD-CLONE CORP.(CCC) and for Human MGMT from LifeSpan Biosciences, Inc.

MPG [4] = assay: ELISA protein level in human GBM cell lysates; format: cell-based
Description: as §1, §2, §3

HIF-1α [5] = assay: ELISA protein level in human GBM cell lysates; format: cell-based
Description: as §1, §2, §3

HIF-1α [6] = assay: RT-PCR gene-fold changes in human GBM cells; format: cell-based
Description: (§4) Quantification of mRNA by real-time quantitative RT-PCR for HIF-1a, MPG and MGMT. Total RNA from all cell lines with all treatments was purified with an RNeasy Mini Kit (Qiagen), and quantified by spectrophotometry (Nanodrop). cDNA was synthesized using SuperScript IV Reverse Transcriptase Kit (Invitrogen).
(§5) Target gene mRNA was amplified and measured by Bio-Rad CFX96™ Real Time System. Gene expression was determined using the SYBR Select Master Mix (Applied Biosystems). […] The reaction is characterized by the point during cycling when amplification of PCR products is first detected, rather than the amount of PCR product accumulated after a fixed number of cycles. The higher the starting quantity of the template, the earlier a significant increase in fluorescence is observed. The threshold cycle is defined as the fractional cycle number at which fluorescence passes a fixed threshold above the baseline. Fluorescence data were converted into cycle threshold measurements exported to Microsoft Excel. Glyceraldehyde-3-phosphatase dehydrogenase (GAPDH) mRNA expression levels were used as the quantitative internal control. For precise quantification, the mRNA expression level of each sample was normalized using the expression of the GAPDH gene.
(§6) All primers were synthesized by Integrated DNA Technologies. The primers used were: […]

T98 cells = assay: IC50 TMZ sensitivity (50% growth inhibition, cell counts); format: cell-based, human; conditions: TMZ alone
Description: (§7) Culture Collection (ATCC; Manassas, VA, USA) (U-138—ATCC (CRL-HTB-16) glioblastoma; LN-18—ATCC (CRL-2610) glioblastoma; LN-229—ATCC (CRL-2611) glioblastoma; and T-98G—ATCC—(CRL-1690). U-251 GBM cells were obtained from Sigma-Aldrich (N#09063001 also known before as U-373 MG (ATCC® HTB-17)). G55 cells were obtained from Dr. Michael Sughrue, who was a resident at Univ. of California San Francisco (originally obtained from C. David James (Department of Neurological Surgery, UCSF, CA, USA), who characterized the cells).
(§8) Cells were cultured in Dulbecco's modified Eagle's medium (DMEM, Gibco BRL, Crand Island, N.Y., USA) supplemented with 10% fetal bovine serum (Gibco) in a standard humidified incubator at 37° C. under 5% CO2.
(§9) IC50 concentrations—Protocol for TMZ sensitivity determination. […] Briefly, cells were plated at 1×10^4 cells per well in 24-well, flat-bottomed plates and incubated with medium for 24 hrs. The cells were subsequently washed twice with medium and incubated further with fresh medium (control) or medium containing 0.1-1,000 μM of TMZ. Per each plate contained growth medium with +/−TMZ there was a plate with medium containing 1 mM OKN. After exposure to the various concentrations of TMZ for 72 hrs, cells were detached by trypsinization and the numbers counted. The experiments were repeated at least 4 times at each concentration.

LN229 cells = assay: as above; format: cell-based, human; conditions: TMZ alone
Description: as §7, §8, §9

MGMT [7] = assay: RT-PCR gene-fold changes in human GBM cells; format: cell-based
Description: as §4, §5, §6
(§10) were used to amplify 603-bp transcripts of MPG [9].

MPG [8] = assay: RT-PCR gene-fold changes in human GBM cells; format: cell-based
Description: as §4, §5, §6, §10

LN18 cells = assay: IC50 TMZ sensitivity (50% growth inhibition, cell counts); format: cell-based; conditions: Homo sapiens, LN-18, TMZ alone, 72 hrs
Description: as §7, §8, §9

G55 cells = assay: as above; format: cell-based; conditions: Homo sapiens, 72 h, TMZ alone
Description: as §7, §8, §9

U251 cells = assay: as above; format: cell-based; conditions: Homo sapiens, U-251, TMZ alone, 72 hrs
Description: as §7, §8, §9

U138 cells = assay: as above; format: cell-based; conditions: Homo sapiens, TMZ alone, 72 hrs
Description: as §7, §8, §9

[9] = patients; cited from earlier work
[10] = T98 cells (TMZ-resistant), UT 1.00
[11] = U251 cells (TMZ-sensitive), UT 1.00

O=NN(CCCl)C(=O)NC1CCCCC1 [Lomustine, 1-(2-chloroethyl)-3-cyclohexyl-1-nitrosourea]
crossing of the blood brain barrier [1]: crosses the blood brain barrier

CC(C)(C)[N+]([O-])=Cc1ccccc1 [PBN, phenyl N-tert-butyl nitrone]
half-life [2]: about 132 minutes
crossing of the blood brain barrier [1]: easily penetrate the BBB
tumors with reduced tumor growth (C6 gliomas; post-treatment): ~50%
tumors with reduced growth (C6 gliomas; pre-treatment): > 80%

Cn1nnc2c(C(N)=O)ncn2c1=O [TMZ, Temozolomide, reference compound]
ELISA protein level MGMT (MGMT [3]; G55 cells, UT 0.37): 1.19 ng/mg cell lysate
ELISA protein level MGMT (MGMT [3]; LN18 cells, UT 1.23): 1.28 ng/mg cell lysate
ELISA protein level MGMT (MGMT [3]; LN229 cells, UT 0.67): 0.75 ng/mg cell lysate
ELISA protein level MGMT (MGMT [3]; T98 cells, UT 0.62): 1.76 ng/mg cell lysate
ELISA protein level MGMT (MGMT [3]; U138 cells, UT 0.77): 0.98 ng/mg cell lysate
ELISA protein level MGMT (MGMT [3]; U251 cells, UT 0.92): 1.48 ng/mg cell lysate
ELISA protein level MPG (MPG [4]; G55 cells, UT 1.15): 1.50 ng/mg cell lysate
ELISA protein level MPG (MPG [4]; LN18 cells, UT 2.18): 2.27 ng/mg cell lysate
ELISA protein level MPG (MPG [4]; LN229 cells, UT 2.34): 1.93 ng/mg cell lysate
ELISA protein level MPG (MPG [4]; T98 cells, UT 3.04): 3.82 ng/mg cell lysate
ELISA protein level MPG (MPG [4]; U138 cells, UT 1.30): 1.50 ng/mg cell lysate
ELISA protein level MPG (MPG [4]; U251 cells, UT 2.70): 4.99 ng/mg cell lysate
ELISA protein level HIF-1α (HIF-1α [5]; G55 cells, UT 0.14): 1.08 ng/mg cell lysate
ELISA protein level HIF-1α (HIF-1α [5]; LN18 cells, UT 0 76): 0.83 ng/mg cell lysate
ELISA protein level HIF-1α (HIF-1α [5]; LN229 cells, UT 0.68): 0.74 ng/mg cell lysate
ELISA protein level HIF-1α (HIF-1α [5]; T98 cells, UT 0.42): 0.77 ng/mg cell lysate
ELISA protein level HIF-1α (HIF-1α [5]; U138 cells, UT 0.40): 0.84 ng/mg cell lysate
ELISA protein level HIF-1α (HIF-1α [5]; U251 cells, UT 0.30): 1.41 ng/mg cell lysate
RT-PCR gene-fold change HIF-1α (HIF-1α [6]; G55 cells (TMZ-resistant), UT 1.00): 1.85 fold
RT-PCR gene-fold change HIF-1α (HIF-1α [6]; LN18 cells (TMZ-resistant), UT 1.03): 2.11 fold
RT-PCR gene-fold change HIF-1α (HIF-1α [6]; LN229 cells (TMZ-sensitive), UT 1.00): 1.41 fold
RT-PCR gene-fold change HIF-1α (HIF-1α [6]; [10]): 1.72 fold
RT-PCR gene-fold change HIF-1α (HIF-1α [6]; U138 cells (TMZ-resistant), UT 1.00): 2.05 fold
RT-PCR gene-fold change HIF-1α (HIF-1α [6]; [11]): 1.48 fold
IC50 (T98 cells; Homo sapiens, T98, 72 h): 438 µM
IC50 (T98 cells; 72 hrs): 447 µM
IC50 (LN229 cells; Homo sapiens, LN-229, 72 h): 108 µM
IC50 (LN229 cells; 72 hrs): ~100 µM
RT-PCR gene-fold change MGMT (MGMT [7]; LN18 cells (TMZ-resistant), UT 1.06): 0.77 fold
RT-PCR gene-fold change MGMT (MGMT [7]; [10]): 1.07 fold
RT-PCR gene-fold change MGMT (MGMT [7]; [11]): 1.32 fold
RT-PCR gene-fold change MPG (MPG [8]; G55 cells (TMZ-resistant), UT 1.06): 2.53 fold
RT-PCR gene-fold change MPG (MPG [8]; LN18 cells (TMZ-resistant), UT 1.00): 2.95 fold
RT-PCR gene-fold change MPG (MPG [8]; LN229 cells (TMZ-sensitive), UT 1.10): 1.22 fold
RT-PCR gene-fold change MPG (MPG [8]; T98 cells (TMZ-resistant), UT 1.10): 1.22 fold
RT-PCR gene-fold change MPG (MPG [8]; U138 cells (TMZ-resistant), UT 1.13): 7.14 fold
RT-PCR gene-fold change MPG (MPG [8]; U251 cells (TMZ-sensitive), UT 1.10): 1.11 fold
IC50 (LN18 cells): 774 µM
IC50 (G55 cells; G55 (high) passage): 94.3 µM
IC50 (G55 cells; G55 (low) passage): 567 µM
IC50 (U251 cells): 176 µM
IC50 (U138 cells): 448 µM
incidence of severe nausea and vomiting (each) [9]: around 4%

CC[C@]1(O)C[C@H]2CN(CCc3c([nH]c4ccccc34)[C@@](C(=O)OC)(c3cc4c(cc3OC)N(C=O)[C@H]3[C@@](O)(C(=O)OC)[C@H](OC(C)=O)[C@]5(CC)C=CCN6CC[C@]43[C@@H]65)C2)C1 [Vincristine, vincaleukoblastine, a 22-oxo-, sulfate (1:1) (salt)]
crossing of the blood brain barrier [1]: does not appear to cross the blood brain barrier
